Measurements reported in patent EP0381335A1, “Antiviral agent and novel nucleoside” (TANABE SEIYAKU CO., LTD., priority 1989, dated 1990).
pEC50: −log10 of the molar value. Where two headings read alike, the source gives them in different places.

Key:
[1] = test system: HIV; assay: Anti-HIV assay: protection of HIV-infected MT-4 cells against cytopathic effect (trypan blue exclusion / MTT method); assay type: cell-based; conditions: for EC50: Human immunodeficiency virus 1, MT4, 120 h, HIV-infected MT-4 cells, five days after infection, MTT method, dose achieving 50 % protection, read-out: HIV (µM) ED₅₀; for pEC50: Human immunodeficiency virus 1, MT4, effective amount necessary for permitting the cells infected with HIV to live to the 5th day after infection, read-out: ED₅₀
Procedure: (§1) The anti-HIV activity of the agents that are subject of the present invention was measured according to the method of E. De Clercq et al. (The Journal of Virological Methods, 16 : 171 - 185 (1987) and The Journal of Virological Methods, 20 : 309-321 (1988)).
(§2) MT-4 cells of a 24 hours-old culture were suspended at 5 x 10⁵ cells per ml. Of this suspension, 2-ml portions were divided over polyisopropylene 2059 Falcon culture tubes (Becton Dickinson). The MT-4 cell suspensions were then centrifuged for 10 min at 140 x g and the supernatants were discarded. The MT-4 cell pellets were infected with 200 µl of a 1:5 HIV stock solution (titer 10³ CCID₅₀ ml; i.e., finally 10 CCID₅₀ well) in RPMI medium (composition as described above). Control MT-4 cell pellets were mock-infected with 200 µl RPMI medium. The culture tubes were then capsulated and subsequently incubated at 37 °C for 1.5 hours, upon which 1.8 ml of RPMI medium was added to each tube. The HIV-infected and mock-infected MT-4 cells were each pooled in two 45-ml centrifuge tubes.
(§3) Varying dilutions of the test compounds in RPMI medium were added in 100-µl volumes to the wells of a flat bottom, 96-well plastic microtiter tray (Sterilin Ltd. Teddington, Middlesex, England).
(§4) Of the HIV-infected or mock-infected MT-4 cell suspensions 100-µl volumes were added to the wells. The cell cultures were then incubated at 37 °C in a 5 % CO₂/95 % air humidified atmosphere. The cells remained in contact with the test compounds during the whole incubation period. Five days after infection the viability of the cells was examined microscopically in a hematocytometer by the trypan blue dye exclusion method.
(§5) Alternatively, viability of the cells was determined by the tetrazolium-based colorimetric method (MTT method) as described in the Journal of Virological Methods, 20 : 309 - 321 (1988).
(§6) Flat bottom, 96-well plastic mictrotiter trays (Falcon, Becton Dickinson, Mountain View, CA) were filled with 100 µl of complete medium using a Titertek® Multidrop dispenser (Flow Laboratories). This eight-channel dispenser could fill a microtiter tray in less than 10 s. Subsequently, stock solutions (10 x final test concentration) of compounds were added in 25 µl volumes to two series of triplicate wells so as to allow simultaneous evaluation of their effects on HIV- and mock-infected cells. Serial five-fold dilutions were made directly in the microtiter trays using an eight-channel Titertek® pipette (FLow Laboratories). Untreated control HIV- and mock-infected cell samples were included for each compound.
(§7) Exponentially growing MT-4 cells were centrifuged for 10 min at 140 x g and the supernatants were discarded. The pellet was either infected with 100 CCID₅₀ or mock-infected. The MT-4 cells were resuspended at 4 x 10⁵ cells/ml in two flasks which were connected with an autoclavable dispensing cassette of a Titertek® Multidrop dispenser. Under slight magnetic stirring 100-µl volumes were then transferred to the microtiter tray wells. The outer row wells were filled with 100 µl of medium. The cell cultures were incubated at 37 °C in a humidified atmosphere of 5 % CO₂ in air. The cells remained in contact with the test compounds during the whole incubation period. Five days after infection the viability of mock- and HIV infected cells was examined either microscopically in a hemacytometer by the trypan blue exclusion method or spectrophotometrically by the MTT method.
(§8) The MTT method is based on the reduction of the yellow coloured 3-(4,5-dimethylthiazol-2-yl)-2,5-diphenyltetrazolium bromide (MTT) (Sigma Chemical Co., St. Louis, MO) by mitochondrial dehydrogenases of metabolically active cells to a blue formazan which can be measured spectrophotometrically. Therefore, to each well of the microtiter trays, 20 µl of a solution of MTT (7.5 mg/ml) in phosphate-buffered saline was added using the Titertek® Multidrop. The trays were further incubated at 37 °C in a CO₂ incubator for the indicated times. […]

[2] = test system: MT-4 cells; assay: Cytotoxicity in mock-infected MT-4 cells (trypan blue exclusion / MTT method); assay type: cell-based; conditions: for HIV (µM) TD₅₀: human, 5 days
Procedure: as §1, §2, §3, §4, §5, §6, §7, §8

SMILES | EC50 [1] [µM] | pEC50 [1] | HIV (µM) TD₅₀ [2] [µM] | cytotoxicity ([2]; at the concentration of 500 µM) | cytotoxicity ([2]; at the concentration of 125 µM)
NO[C@H]1C[C@H](n2cnc3c(N)ncnc32)O[C@@H]1CO [compound 4, 9-(3-O-amino-2-deoxy-β-D-erythro-pentofuranosyl)adenine] | 32 | 4.49 | 1000 | – | –
C=NO[C@H]1C[C@H](n2cc(C)c(=O)[nH]c2=O)O[C@@H]1CO [compound 2, 3′-O-methylideneaminothymidine] | 17 | – | 106 | – | –
NO[C@H]1C[C@H](n2cnc3c(=O)[nH]c(N)nc32)O[C@@H]1CO [compound 5, 9-(3-O-amino-2-deoxy-β-D-erythro-pentofuranosyl)guanine] | 2.17 | – | 74.03 | – | –
Cc1cn([C@H]2C[C@H](ONC=O)[C@@H](CO)O2)c(=O)[nH]c1=O [compound 1, 3′-O-formamidothymidine] | 13 | – | 144 | – | –
NO[C@H]1C[C@H](n2ccc(N)nc2=O)O[C@@H]1CO [3′-O-amino-2′-deoxycytidine] | – | 4.21 | – | no cytotoxicity appeared | –
Cc1cn([C@H]2C[C@H](ON)[C@@H](CO)O2)c(=O)[nH]c1=O [3′-O-aminothymidine] | – | 4.64 | – | – | only slight cytotoxicity appeared
CC(C)=NO[C@H]1C[C@H](n2cc(C)c(=O)[nH]c2=O)O[C@@H]1CO [compound 3, 3′-O-isopropylideneaminothymidine] | 32 | – | 313 | – | –
